Experimental data as given in US20210101874A1, “MICROBIOCIDAL OXADIAZOLE DERIVATIVES” (SYNGENTA PARTICIPATIONS AG, priority 2017, published 2021).

What was measured:
[1] = tested on: Glomerella lagenarium (Colletotrichum lagenarium); test: Glomerella lagenarium (Colletotrichum lagenarium) liquid culture / cucumber / preventative (anthracnose); assay type: cell-based; settings: Colletotrichum orbiculare; 20 ppm in the applied formulation; conidia in PDB nutrient broth, 24° C.; 3 to 4 days after application; compared to untreated; read-out: disease control (inhibition of growth measured photometrically)
Method in brief: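 Cryostored conidia in potato dextrose broth added to compound diluted from DMSO solution, 96-well format. Plates incubated at 24 °C. Growth inhibition read photometrically 3 to 4 days after application, as percent activity versus untreated check.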

[2] = tested on: Puccinia recondita f. sp. Tritici; test: Puccinia recondita f. sp. tritici / wheat / leaf disc curative (brown rust); assay type: in vivo; settings: foliar, 200 ppm in the applied formulation, wheat leaf segments cv. Kanzler, applied 1 day after inoculation, compared to untreated, assessed 6 to 8 days after application, read-out: disease control
Description: Leaf disks or leaf segments of various plant species are cut from plants grown in a greenhouse. The cut leaf disks or segments are placed in multiwell plates (24-well format) onto water agar. The leaf disks are sprayed with a test solution before (preventative) or after (curative) inoculation. Compounds to be tested are prepared as DMSO solutions (max. 10 mg/ml) which are diluted to the appropriate concentration with 0.025% Tween20 just before spraying. The inoculated leaf disks or segments are incubated under defined conditions (temperature, relative humidity, light, etc.) according to the respective test system. A single evaluation of disease level is carried out 3 to 14 days after inoculation, depending on the pathosystem. Percent disease control relative to the untreated check leaf disks or segments is then calculated.
Wheat leaf segments cv. Kanzler are placed on agar in multiwell plates (24-well format). The leaf segments are then inoculated with a spore suspension of the fungus. Plates were stored in darkness at 19° C. and 75% relative humidity. The formulated test compound diluted in water was applied 1 day after inoculation. The leaf segments were incubated at 19° C. and 75% relative humidity under a light regime of 12 hours light/12 hours darkness in a climate cabinet and the activity of a compound was assessed as percent disease control compared to untreated when an appropriate level of disease damage appears in untreated check leaf segments (6 to 8 days after application).
The following compounds at 200 ppm in the applied formulation give at least 80% disease control in this test when compared to untreated control leaf disks under the same conditions, which show extensive disease development.

[3] = tested on: Puccinia recondita f. sp. Tritici; test: Puccinia recondita f. sp. tritici / wheat / leaf disc preventative (brown rust); assay type: in vivo; settings: foliar, 200 ppm in the applied formulation, wheat leaf segments cv. Kanzler, inoculated 1 day after application, compared to untreated, assessed 7 to 9 days after application, read-out: disease control
Method in brief: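 Compound, diluted from DMSO solution into aqueous 0.025% Tween20, is sprayed at 200 ppm onto cut wheat segments (cv. Kanzler) placed on water agar. One day on, segments receive a fungal spore suspension and are incubated at 19° C., 75% rh, 12 h photoperiod, with % control vs untreated scored at 7–9 days.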

CS(=O)(=O)NCc1ccc(-c2noc(C(F)(F)F)n2)cc1F [Compound 2.27, N-[[2-fluoro-4-[5-(trifluoromethyl)-1,2,4-oxadiazol-3-yl]phenyl]methyl] methanesulfon-amide]
≥ 80%: inhibition at 20 ppm [1] | pest or weed control at 200 ppm [2] | pest or weed control at 200 ppm [3]

Cn1ccc(S(=O)(=O)NCc2ccc(-c3noc(C(F)(F)F)n3)c(F)c2)n1 [Compound 3.14, N-[[3-fluoro-4-[5-(trifluoromethyl)-1,2,4-oxadiazol-3-yl]phenyl]methyl]-1-methyl-pyrazole-3-sulfonamide]
≥ 80%: inhibition at 20 ppm [1] | pest or weed control at 200 ppm [2] | pest or weed control at 200 ppm [3]

O=S(=O)(CC1CCOC1)NCc1ccc(-c2noc(C(F)(F)F)n2)c(F)c1 (stereo not drawn) [Compound 3.20, N-[[3-fluoro-4-[5-(trifluoromethyl)-1,2,4-oxadiazol-3-yl]phenyl]methyl]-1-tetrahydrofuran-3-yl-methanesulfonamide]
≥ 80%: inhibition at 20 ppm [1] | pest or weed control at 200 ppm [2] | pest or weed control at 200 ppm [3]

C=CCS(=O)(=O)NCc1ccc(-c2noc(C(F)(F)F)n2)c(F)c1 [Compound 2.15, N-[[3-fluoro-4-[5-(trifluoromethyl)-1,2,4-oxadiazol-3-yl]phenyl]methyl] prop-2-ene-1-sulfonamide]
≥ 80%: inhibition at 20 ppm [1] | pest or weed control at 200 ppm [2] | pest or weed control at 200 ppm [3]

CCCS(=O)(=O)N(C)Cc1ccc(-c2noc(C(F)(F)F)n2)cc1 [Compound 1.25, N-methyl-N-[[4-[5-(trifluoromethyl)-1,2,4-oxadiazol-3-yl]phenyl]methyl] propane-1-sulfonamide]
≥ 80%: inhibition at 20 ppm [1] | pest or weed control at 200 ppm [2] | pest or weed control at 200 ppm [3]

O=S(=O)(NCc1ccc(-c2noc(C(F)(F)F)n2)c(F)c1)C1CC1 [Compound 3.19, N-[[3-fluoro-4-[5-(trifluoromethyl)-1,2,4-oxadiazol-3-yl]phenyl]methyl] cyclopropanesulfon-amide]
≥ 80%: inhibition at 20 ppm [1] | pest or weed control at 200 ppm [2] | pest or weed control at 200 ppm [3]

O=S(=O)(CC1CC1)NCc1ccc(-c2noc(C(F)(F)F)n2)c(F)c1 [Compound 3.21, 1-cyclopropyl-N-[[3-fluoro-4-[5-(trifluoromethyl)-1,2,4-oxadiazol-3-yl]phenyl]methyl] methanesulfonamide]
≥ 80%: inhibition at 20 ppm [1] | pest or weed control at 200 ppm [2] | pest or weed control at 200 ppm [3]

CS(=O)(=O)NCc1ccc(-c2noc(C(F)(F)F)n2)cc1 [Compound 2.13, N-[[4-[5-(trifluoromethyl)-1,2,4-oxadiazol-3-yl]phenyl]methyl] methanesulfon-amide]
≥ 80%: inhibition at 20 ppm [1] | pest or weed control at 200 ppm [2] | pest or weed control at 200 ppm [3]

CCN(Cc1ccc(-c2noc(C(F)(F)F)n2)cc1)S(=O)(=O)C1CC1 [Compound 1.33, N-ethyl-N-[[4-[5-(trifluoromethyl)-1,2,4-oxadiazol-3-yl]phenyl]methyl] cyclopropanesulfonamide]
≥ 80%: inhibition at 20 ppm [1] | pest or weed control at 200 ppm [2] | pest or weed control at 200 ppm [3]

COCCS(=O)(=O)N(C)Cc1ccc(-c2noc(C(F)(F)F)n2)cc1 [Compound 1.49, 2-methoxy-N-methyl-N-[[4-[5-(trifluoromethyl)-1,2,4-oxadiazol-3-yl]phenyl]methyl] ethanesulfonamide]
≥ 80%: inhibition at 20 ppm [1] | pest or weed control at 200 ppm [2] | pest or weed control at 200 ppm [3]

C=CCS(=O)(=O)NCc1ccc(-c2noc(C(F)(F)F)n2)cc1 [Compound 2.7, N-[[4-[5-(trifluoromethyl)-1,2,4-oxadiazol-3-yl]phenyl]methyl] prop-2-ene-1-sulfonamide]
≥ 80%: inhibition at 20 ppm [1] | pest or weed control at 200 ppm [2] | pest or weed control at 200 ppm [3]

CCCS(=O)(=O)NCc1ccc(-c2noc(C(F)(F)F)n2)c(F)c1 [Compound 2.5, N-[[3-fluoro-4-[5-(trifluoromethyl)-1,2,4-oxadiazol-3-yl]phenyl]methyl] propane-1-sulfonamide]
≥ 80%: inhibition at 20 ppm [1] | pest or weed control at 200 ppm [2] | pest or weed control at 200 ppm [3]
